Source: PubChem BioAssay (NCI)
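A five-concentration, 48-hour dose response in 96-well plates underlies each endpoint, interpolated linearly between surrounding concentrations. Definition used: TGI = concentration required for complete inhibition of growth.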

Experiments:
Assay in all cases: growth of human tumour cells (NCI), 48 h
[1] = test system: CCRF-CEM leukemia
[2] = test system: SK-MEL-28 melanoma
[3] = test system: MALME-3M melanoma
[4] = test system: SK-OV-3 ovarian
[5] = test system: SNB-75 CNS
[6] = test system: MDA-MB-231 breast
[7] = test system: MOLT-4 leukemia
[8] = test system: HCC-2998 colon
[9] = test system: A498 renal
[10] = test system: SK-MEL-2 melanoma
[11] = test system: HS 578T breast
[12] = test system: SW-620 colon
[13] = test system: HT29 colon
[14] = test system: NCI-H226 lung
[15] = test system: NCI-H522 lung
[16] = test system: SF-539 CNS
[17] = test system: OVCAR-3 ovarian

## CCOC(=O)C1=NNC(C(=O)c2ccccc2)C1c1ccccc1 (configuration not stated)
[1]
  TGI: > 100 µM
[2]
  TGI: 3.67 µM
[3]
  TGI: 4.77 µM
[4]
  TGI: 33.1 µM
[5]
  TGI: 16.7 µM
[6]
  TGI: 12.2 µM
[7]
  TGI: > 34.8 µM
[8]
  TGI: 3.92 µM
[9]
  TGI: > 100 µM
[10]
  TGI: 31.2 µM
[11]
  TGI: 20.5 µM
[12]
  TGI: 3.48 µM
[13]
  TGI: 5.3 µM
[14]
  TGI: 39.5 µM
[15]
  TGI: 2.02 µM
[16]
  TGI: 4.76 µM
[17]
  TGI: 11 µM
